Laboratory results as given in patent US20210254056A1, “IDENTIFICATION AND TARGETED MODULATION OF GENE SIGNALING NETWORKS” (CAMP4 THERAPEUTICS CORPORATION, priority 2017, published 2021).

System: hepatocytes
Assay: RNA-seq of hepatocytes treated with Phase III failure compounds
Details: for significant modulation of expression of any of the genes analyzed: p≤0.05
Description: RNA-seq was performed to determine the effects of the compounds on hepatocytes.
Significance was determined by the criteria of FPKM≥0.5, a log 2(fold-change)≥1, and a […].

## NC(=O)c1ccc(I)c([N+](=O)[O-])c1 [BSI-201]
  RNA-seq results, CYP2B6 expression: 0.07
  RNA-seq results, CYP2C19 expression: 0.30
  RNA-seq results, CYP2D6 expression: −0.15
  RNA-seq results, CYP3A4 expression: −0.46
  RNA-seq results, CYP7B1 expression: 0.03
  RNA-seq results, CYP39A1 expression: −0.20
  RNA-seq results: CYP2B6 expression: 0.48
  RNA-seq results: CYP2C19 expression: 0.24
  RNA-seq results: CYP2D6 expression: 0.11
  RNA-seq results: CYP3A4 expression: 3.12
  RNA-seq results: CYP7B1 expression: 0.05
  RNA-seq results: CYP39A1 expression: 0.43
RNA-seq, q≤0.05, hepatocytes, genes in the value or listed in the block
  significant modulation of expression of disease genes: significantly (q≤0.05) modulate expression of RMRP
Gene A1BG, hepatocytes
  RNA-seq results: A1BG expression: −0.21
Gene AGTR1, hepatocytes
  RNA-seq results: AGTR1 expression: −0.22
Gene AGXT, hepatocytes
  RNA-seq results: AGXT expression: −0.06
Gene AHI1, hepatocytes
  RNA-seq results: AHI1 expression: 0.33
Gene AMPD3, hepatocytes
  RNA-seq results: AMPD3 expression: 0.19
Gene AMT, hepatocytes
  RNA-seq results: AMT expression: −0.04
Gene ANGPTL3, hepatocytes
  RNA-seq results: ANGPTL3 expression: −0.14
Gene ANKS4B, hepatocytes
  RNA-seq results: ANKS4B expression: −0.24
Gene ANKS6, hepatocytes
  RNA-seq results: ANKS6 expression: 0.04
Gene ANPEP, hepatocytes
  RNA-seq results: ANPEP expression: −0.09
Gene AOC2, hepatocytes
  RNA-seq results: AOC2 expression: 0.36
Gene APOA2, hepatocytes
  RNA-seq results: APOA2 expression: −0.52
Gene APOA5, hepatocytes
  RNA-seq results: APOA5 expression: −0.17
Gene APOB, hepatocytes
  RNA-seq results: APOB expression: 0.03
Gene COG5, hepatocytes
  RNA-seq results: COG5 expression: −0.06
Gene COG6, hepatocytes
  RNA-seq results: COG6 expression: −0.01
Gene COL1A1, hepatocytes
  RNA-seq results: COL1A1 expression: −0.34
Gene COX6A1, hepatocytes
  RNA-seq results: COX6A1 expression: −0.13
Gene CP, hepatocytes
  RNA-seq results: CP expression: 0.11
Gene CPS1, hepatocytes
  RNA-seq results: CPS1 expression: 0.09
Gene CPT1A, hepatocytes
  RNA-seq results: CPT1A expression: −0.18
Gene CPT2, hepatocytes
  RNA-seq results: CPT2 expression: 0.10
Gene CROT, hepatocytes
  RNA-seq results: CROT expression: −0.04
Gene CSPP1, hepatocytes
  RNA-seq results: CSPP1 expression: −0.07
Gene CTC1, hepatocytes
  RNA-seq results: CTC1 expression: −0.08
Gene CTDSP2, hepatocytes
  RNA-seq results: CTDSP2 expression: 0.10
Gene CTH, hepatocytes
  RNA-seq results: CTH expression: 0.23
Gene CTNS, hepatocytes
  RNA-seq results: CTNS expression: 0.08
Gene CTSF, hepatocytes
  RNA-seq results: CTSF expression: 0.10
Gene CTSK, hepatocytes
  RNA-seq results: CTSK expression: −0.15
Gene CYB5A, hepatocytes
  RNA-seq results: CYB5A expression: 0.73
Gene CYB5R3, hepatocytes
  RNA-seq results: CYB5R3 expression: 0.04
Gene CYP27A1, hepatocytes
  RNA-seq results: CYP27A1 expression: 0.04
Gene DAO, hepatocytes
  RNA-seq results: DAO expression: −0.04
Gene DBT, hepatocytes
  RNA-seq results: DBT expression: 0.04
Gene DCDC2, hepatocytes
  RNA-seq results: DCDC2 expression: 0.01
Gene DCXR, hepatocytes
  RNA-seq results: DCXR expression: −0.01
Gene FABP1, hepatocytes
  RNA-seq results: FABP1 expression: −0.25
Gene FADD, hepatocytes
  RNA-seq results: FADD expression: −0.08
Gene FAM111A, hepatocytes
  RNA-seq results: FAM111A expression: 0.07
Gene FAM111B, hepatocytes
  RNA-seq results: FAM111B expression: 0.03
Gene FAN1, hepatocytes
  RNA-seq results: FAN1 expression: 0.05
Gene FARS2, hepatocytes
  RNA-seq results: FARS2 expression: −0.14
Gene FASLG, hepatocytes
  RNA-seq results: FASLG expression: −0.21
Gene FGA, hepatocytes
  RNA-seq results: FGA expression: 0.16
Gene FGD1, hepatocytes
  RNA-seq results: FGD1 expression: −0.07
Gene FGFR2, hepatocytes
  RNA-seq results: FGFR2 expression: 0.07
Gene FIG4, hepatocytes
  RNA-seq results: FIG4 expression: −0.12
Gene FIS1, hepatocytes
  RNA-seq results: FIS1 expression: −0.06
Gene FTCD, hepatocytes
  RNA-seq results: FTCD expression: 0.31
Gene FTH1, hepatocytes
  RNA-seq results: FTH1 expression: 0.06
Gene FUCA1, hepatocytes
  RNA-seq results: FUCA1 expression: −0.11
Gene FXN, hepatocytes
  RNA-seq results: FXN expression: 0.23
Gene G6PC3, hepatocytes
  RNA-seq results: G6PC3 expression: 0.02
Gene G6PC, hepatocytes
  RNA-seq results: G6PC expression: 0.12
Gene G6PD, hepatocytes
  RNA-seq results: G6PD expression: 0.13
Gene GALK1, hepatocytes
  RNA-seq results: GALK1 expression: −0.03
Gene GALK2, hepatocytes
  RNA-seq results: GALK2 expression: 0.00
Gene GALT, hepatocytes
  RNA-seq results: GALT expression: 0.01
Gene GATA6, hepatocytes
  RNA-seq results: GATA6 expression: −0.07
Gene GATM, hepatocytes
  RNA-seq results: GATM expression: −0.15
Gene GBA, hepatocytes
  RNA-seq results: GBA expression: 0.02
Gene GBE1, hepatocytes
  RNA-seq results: GBE1 expression: −0.15
Gene GCH1, hepatocytes
  RNA-seq results: GCH1 expression: −0.06
Gene GCKR, hepatocytes
  RNA-seq results: GCKR expression: 0.23
Gene GCLC, hepatocytes
  RNA-seq results: GCLC expression: −0.04
Gene GOSH, hepatocytes
  RNA-seq results: GOSH expression: 0.46
Gene RRM2B, hepatocytes
  RNA-seq results: RRM2B: −0.28
Gene RSAD1, hepatocytes
  RNA-seq results: RSAD1: −0.02
Gene SAMHD1, hepatocytes
  RNA-seq results: SAMHD1: −0.24
Gene SC5D, hepatocytes
  RNA-seq results: SC5D: −0.29
Gene SCARB1, hepatocytes
  RNA-seq results: SCARB1: −0.03
Gene SCN9A, hepatocytes
  RNA-seq results: SCN9A: 0.10
Gene SDCCAG8, hepatocytes
  RNA-seq results: SDCCAG8: −0.06
Gene SEPN1, hepatocytes
  RNA-seq results: SEPN1: −0.11
Gene SERAC1, hepatocytes
  RNA-seq results: SERAC1: −0.22
Gene SERPINA1, hepatocytes
  RNA-seq results: SERPINA1: −0.17
Gene SERPING1, hepatocytes
  RNA-seq results: SERPING1: −0.16
Gene SERPINI1, hepatocytes
  RNA-seq results: SERPINI1: −0.41
Gene SETBP1, hepatocytes
  RNA-seq results: SETBP1: 0.06
Gene SFXN4, hepatocytes
  RNA-seq results: SFXN4: −0.19
Gene SLC10A1, hepatocytes
  RNA-seq results: SLC10A1: −0.31
Gene SLC10A3, hepatocytes
  RNA-seq results: SLC10A3: 0.33
Gene SLC10A5, hepatocytes
  RNA-seq results: SLC10A5: 0.19
Gene SLC10A7, hepatocytes
  RNA-seq results: SLC10A7: −0.38
Gene SLC11A2, hepatocytes
  RNA-seq results: SLC11A2: −0.02
Gene SLC19A1, hepatocytes
  RNA-seq results: SLC19A1: 0.05
Gene SLC19A2, hepatocytes
  RNA-seq results: SLC19A2: 0.00
Gene SLC19A3, hepatocytes
  RNA-seq results: SLC19A3: −0.03
Gene SLC22A1, hepatocytes
  RNA-seq results: SLC22A1: −0.32
Gene SLC22A5, hepatocytes
  RNA-seq results: SLC22A5: 0.05
Gene SLC25A1, hepatocytes
  RNA-seq results: SLC25A1: 0.08
Gene SLC25A10, hepatocytes
  RNA-seq results: SLC25A10: −0.16
Gene SLC25A12, hepatocytes
  RNA-seq results: SLC25A12: 0.23
Gene SLC25A13, hepatocytes
  RNA-seq results: SLC25A13: −0.13
Gene SLC25A15, hepatocytes
  RNA-seq results: SLC25A15: 0.02
Gene SLC25A19, hepatocytes
  RNA-seq results: SLC25A19: −0.15
Gene SLC25A20, hepatocytes
  RNA-seq results: SLC25A20: −0.16
Gene SLC25A29, hepatocytes
  RNA-seq results: SLC25A29: 0.09
Gene SLC25A32, hepatocytes
  RNA-seq results: SLC25A32: −0.05

## CC1(C)CC[C@]2(C(=O)O)CC[C@]3(C)[C@H](C(=O)C=C4[C@@]5(C)C=C(C#N)C(=O)C(C)(C)[C@@H]5CC[C@]43C)[C@@H]2C1 [Bardoxolone]
RNA-seq, hepatocytes
  significant modulation of expression of any of the genes analyzed: not observed to significantly modulate expression

## C[C@H](Oc1ccc(S(C)(=O)=O)cc1C(=O)N1CCN(c2ncc(C(F)(F)F)cc2F)CC1)C(F)(F)F [Bitopertin]
RNA-seq of Table 36, FPKM≥0.5, log 2(fold-change)≥1, q-value≤0.05
  significant changes in gene expression: not observed to cause any significant changes in gene expression
RNA-seq, hepatocytes
  significant modulation of expression of any of the genes analyzed: not observed to significantly modulate expression
